The structures appear in SMILES notation. pIC50: −log10 of the molar value.

Data set [1] has as its system hepatitis B virus. Kind of data set: HBsAg-positive liver cells in liver sections of mice. The note with it: month-long treatment, FIG. 5b.
A short description of data set [2]: Liver function test (GPT) in mice. It counts as in vivo. The note with it: FIG. 4b. From the text: GPT (Glutamate Pyruvate Transaminase) is used to monitor the liver function of the mice.
A further data set has as its system liver cell line SNAP. Kind of data set: Toxicity to liver cells, SNAP cell line.
Data set [3] has as its system hepatitis B virus. Kind of data set: HBsAg in blood serum of AdHBV-infected mice. The format is in vivo. The note with it: intravenous, 20 mg/ml, FIG. 4a. As to the method: Intravenous injection of […] and Pifithrin-μ can successfully reduce the hepatitis B surface antigen (HBsAg) in the blood serum of mice, wherein the mice are continuously infected by hepatitis B virus in an adenovirus genome transfer technology (AdHBV). Each group has three mice. The experiment design is as follows: inject AdHBV into mice continuously for 28 days; respectively inject a mock medication, 20 mg/ml […], and 20 mg/ml Pifithrin-μ into the mice intravenously; collect the samples of the blood serum and livers for serological and pathological analyses.

The subject of another data set is liver cell line Pre-S2. The data set can be described thus: Toxicity to liver cells, Pre-S2 cell line. The format is cell-based.
A further data set deals with liver cell line WT. Kind of data set: Toxicity to liver cells, WT cell line.
The next data set deals with HSP90 (Homo sapiens, UniProt P08238). The note with it: selectivity over HSP90; cited from earlier work.
For the next data set, the system named is parental NeHepLxHT. The data set can be described thus: Selective cytotoxicity in co-culture, parental cells. It counts as cell-based. The settings on record: 40 μM, 24 hours, FIG. 3b. As to the method:
[…]. The LHBs-positive cells (SNAP cells 505) are labeled by green fluorescence and co-cultured with unlabeled parental NeHepLxHT. The group of the mixed cells is processed with 40 μM VER-155008 and then periodically recorded at time points separated by a longer interval of time for 48 hours. The observed cellular quantities of the unlabeled cells (parental cells) and the green-labeled cells (LHBs-infected cells) are used to reveal typical cellular apoptosis. […].

Data set [4] has as its system LHBs-positive cells (SNAP cells 505) expressing HBV-LHBs. The data set can be described thus: Selective cytotoxicity in co-culture, LHBs-positive cells. It counts as cell-based. The note with it: 40 μM. The method, then: With elapse of time, use a microscope to observe the selective cytotoxicity of VER-155008 to the cells expressing HBV-LHBs (hepatitis B virus large S protein). The LHBs-positive cells (SNAP cells 505) are labeled by green fluorescence and co-cultured with unlabeled parental NeHepLxHT. The group of the mixed cells is processed with 40 μM VER-155008 and then periodically recorded at time points separated by a longer interval of time for 48 hours. The observed cellular quantities of the unlabeled cells (parental cells) and the green-labeled cells (LHBs-infected cells) are used to reveal typical cellular apoptosis.

Chain of HSP90 (P08238 whole entry, species assumed): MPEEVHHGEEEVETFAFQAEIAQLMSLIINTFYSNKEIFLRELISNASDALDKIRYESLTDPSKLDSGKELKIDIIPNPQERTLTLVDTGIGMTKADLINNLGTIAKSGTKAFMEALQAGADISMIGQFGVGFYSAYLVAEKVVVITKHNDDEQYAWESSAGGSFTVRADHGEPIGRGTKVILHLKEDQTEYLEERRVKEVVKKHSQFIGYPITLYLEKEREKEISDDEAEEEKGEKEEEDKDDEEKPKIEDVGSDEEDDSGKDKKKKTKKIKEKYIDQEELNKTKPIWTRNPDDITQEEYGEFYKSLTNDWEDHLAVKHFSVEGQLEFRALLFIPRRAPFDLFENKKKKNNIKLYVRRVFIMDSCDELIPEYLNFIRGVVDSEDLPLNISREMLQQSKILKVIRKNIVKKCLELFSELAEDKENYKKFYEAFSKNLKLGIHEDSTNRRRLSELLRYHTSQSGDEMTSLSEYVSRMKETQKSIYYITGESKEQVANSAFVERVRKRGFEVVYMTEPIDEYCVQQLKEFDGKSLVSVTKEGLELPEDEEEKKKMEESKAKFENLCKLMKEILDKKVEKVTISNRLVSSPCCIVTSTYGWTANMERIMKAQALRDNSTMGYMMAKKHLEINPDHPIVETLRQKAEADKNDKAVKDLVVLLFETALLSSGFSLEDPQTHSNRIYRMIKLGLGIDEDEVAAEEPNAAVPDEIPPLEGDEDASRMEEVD

For the molecule `NS(=O)(=O)C#Cc1ccccc1` [Pifithrin-μ, 2-Phenylethynesulfonamide], the HBcAg-positive liver cells result in the data set on hepatitis B virus [1] (high dosage (40 mg/Kg)) was “kill a portion of the HBcAg-positive liver cells”. In addition, in [2], the “levels of GPT in the blood serums” value was “do not vary obviously”. In addition, the pIC50 was 4.76 in the data set on liver cell line SNAP, 4.93 in the data set with liver cell line Pre-S2 and 4.91 in the data set on liver cell line WT. Further, in the data set on hepatitis B virus [3], the “levels of HBsAg in the blood serums” value is “obviously reduced”.

Take `N#Cc1ccc(COC[C@H]2O[C@@H](n3c(NCc4ccc(Cl)c(Cl)c4)nc4c(N)ncnc43)[C@H](O)[C@@H]2O)cc1` [VER-155008, 5′-O-[(4-Cyanophenyl)methyl]-8-[[(3,4-dichlorophenyl)methyl]amino]-adenosine]: in the data set on hepatitis B virus [1] (low dosage (20 mg/Kg) and high dosage (40 mg/Kg)), the HBsAg-positive liver cells entry is listed as “different effects in decreasing the HBsAg-positive liver cells”. Moreover, the “levels of GPT in the blood serums” value in [2] is “do not vary obviously”. The “effect to HSP70 and GRP78 relative to effect to HSP90” value on HSP90 was “over 100 times”. For the same molecule, the “survival of parental cells” value with parental NeHepLxHT was “still alive”. Further, the pIC50 in the data set with liver cell line SNAP was 4.44; in the data set on liver cell line Pre-S2 it was 4.73; with liver cell line WT it was 4.74. Further, the “levels of HBsAg in the blood serums” value in the data set with hepatitis B virus [3] is given as “obviously reduced”. For the same molecule, the “death of LHBs-positive cells” value in data set [4] (24 hours, FIG. 3b) is listed as “many of the LHBs-positive cells are dead”. For the same molecule, the “death of LHBs-infected cells” value in data set [4] (48 hours, FIG. 3c) was “almost all die”.

What is called pIC50 is −log10 of the IC50, conventionally taken in molar units. The low end stands for a high IC50, the high end for a low IC50.

These data come from patent US9687499B2, “Method using heat shock protein inhibitor for treating hepatitis and hepatoma” (National Tsing Hua University, priority 2014, dated 2017).
